Data: patent US20230357179A1, “RAF KINASE INHIBITORS AND METHODS OF USE THEREOF” (Deciphera Pharmaceuticals, LLC, priority 2021, published 2023)

Columns and labels:
B-Raf (V600E) kinase = biological target: T1, B-Raf (V600E) kinase (Homo sapiens, UniProt P15056, V600E); assay: Biochemical assay for B-Raf (V600E).1 (coupled pyruvate kinase/lactate dehydrogenase); conditions: read-out: BRAF V600E.1 IC50
T1 construct: B-Raf (V600E) residues 416-766 with a; GST (N); purchased SignalChem
Summary of the method: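 0.03 nM B-Raf(V600E) phosphorylating 30.1 nM MEK at 1 mM ATP, pH 7.5, coupled to PK/LDH, with NADH oxidation followed at 340 nm for 6 h at 30 °C. Rates taken from the 3-4 h window. IC50 from a four-parameter fit of percent inhibition.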

H2405 cells = assay: H2405 cell proliferation assay (1), resazurin, 96-well; format: cell-based; conditions: Homo sapiens, NCI-H2405, inhibition of cell proliferation
Summary of the method: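 This is a resazurin viability readout (excitation 540 nm, emission 600 nm) taken 5-6 h after adding 440 μM resazurin solution, giving IC50 values.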

C-Raf kinase = biological target: T2, C-Raf kinase (Homo sapiens, UniProt P04049, Y340D/Y341D); assay: Biochemical assay for C-Raf.1 (coupled pyruvate kinase/lactate dehydrogenase); conditions: read-out: CRAF.1 IC50
T2 construct: Y340D,; GST (N); purchased Sigma
T2 sequence (P04049 307-648 Y340D/Y341D): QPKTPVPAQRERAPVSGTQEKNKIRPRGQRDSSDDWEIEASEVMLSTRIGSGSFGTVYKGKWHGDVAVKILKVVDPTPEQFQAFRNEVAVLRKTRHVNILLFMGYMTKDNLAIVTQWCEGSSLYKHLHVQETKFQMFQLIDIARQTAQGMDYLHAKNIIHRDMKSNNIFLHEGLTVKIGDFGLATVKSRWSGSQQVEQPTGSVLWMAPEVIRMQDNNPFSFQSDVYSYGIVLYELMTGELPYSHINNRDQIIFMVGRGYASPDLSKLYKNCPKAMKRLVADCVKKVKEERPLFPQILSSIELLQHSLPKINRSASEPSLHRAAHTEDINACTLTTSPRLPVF
Summary of the method: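 C-Raf (0.43 nM) with MEK 30.1 nM and 1 mM ATP in Tris pH 7.5/MgCl2 buffer, activity coupled via PK/LDH to NADH oxidation (A340), 6 h at 30° C. Rates from 4–5 h window converted to % inhibition versus controls; IC50 by four-parameter fit, 1% DMSO.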

A375 cells = assay: A375 cell proliferation assay (2), resazurin, 384-well; format: cell-based; conditions: Homo sapiens, A-375, inhibition of cell proliferation, 67-72 h
Description: A375 Cell Proliferation Assay (2)
A375 cells (catalog (#CRL-1619) are obtained from the American Type Culture Collect (ATTC, Manassas, VA). Briefly, cells were grown in DMEM High Glucose supplemented with 10% characterized fetal bovine serum (Invitrogen, Carlsbad, CA) and 1% Penicillin/Streptomycin/L-Glutamine at 37° C., 5% CO2, and 95% humidity. Cells are expanded until reaching 70-95% confluency at which point they are sub-cultured or harvested for assay use. Using the Beckman Coulter Echo 650, a serial dilution of test compound is dispensed into a 384-well black clear bottom plate in triplicate. Six hundred twenty-five cells are added per well in 50 μL complete growth medium in the 384-well plate. Plates are incubated for 67-72 h at 37° C., 5% CO2, and 95% humidity. At the end of the incubation, 10 μL of a 440 μM solution of resazurin (Sigma, St. Louis, MO) in PBS is added to each well of the plate and plates are incubated for an additional 3-6 h at 37° C., 5% CO2, and 95% humidity. Plates are read on a Synergy2 or equivalent reader (Biotek, Winooski VT) using an excitation of 540 nm and an emission of 600 nm. Data is analyzed using Prism software (GraphPad, San Diego, CA) to calculate IC50 values.

T1 sequence (P15056 416-766 V600E): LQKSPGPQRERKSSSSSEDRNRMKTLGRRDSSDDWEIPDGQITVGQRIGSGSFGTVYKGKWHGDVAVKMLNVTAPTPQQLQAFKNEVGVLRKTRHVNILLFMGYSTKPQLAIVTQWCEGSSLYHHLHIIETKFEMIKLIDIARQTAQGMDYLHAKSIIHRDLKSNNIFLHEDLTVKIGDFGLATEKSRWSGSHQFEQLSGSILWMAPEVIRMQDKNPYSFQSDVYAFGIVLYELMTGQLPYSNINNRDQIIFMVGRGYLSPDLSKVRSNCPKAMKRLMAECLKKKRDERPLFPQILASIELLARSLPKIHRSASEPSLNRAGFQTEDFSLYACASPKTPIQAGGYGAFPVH

| IC50 (B-Raf (V600E) kinase) [nM] | IC50 (H2405 cells) [nM] | IC50 (C-Raf kinase) [nM] | IC50 (A375 cells) [nM] | SMILES |
| --- | --- | --- | --- | --- |
| ≤ 100 | 100 to 500 | ≤ 100 | – | COC(=O)Nc1cc(-c2cccc(-c3cc(NC(=O)NCCC(C)(C)OC)c(F)cc3C)c2)ccn1 [Example 85] |
| ≤ 100 | 100 to 500 | ≤ 100 | – | Cc1cc(F)c(NC(=O)NCCC2(C)CC2)cc1-c1cc(OCCO)nc(-c2ccnc3[nH]ncc23)c1 [Example 87] |
| ≤ 100 | 1000 to 10000 | 100 to 500 | – | Cc1cc(F)c(NC(=O)N[C@@H]2CC[C@H](F)C2)cc1-c1cc(OCCO)nc(-c2ccnc3[nH]ncc23)c1 [Example 88] |
| > 1000 | 1000 to 10000 | > 1000 | – | Cc1cc(F)c(NC(=O)NCC[C@@H]2CCO2)cc1-c1cc(OCCO)nc(-c2ccnc3[nH]ncc23)c1 [Example 89] |
| ≤ 100 | 500 to 1000 | ≤ 100 | – | COC(C)(C)CCNC(=O)Nc1cc(-c2cc(OCCO)nc(-c3ccnc4[nH]ccc34)c2)c(C)cc1F [Example 90] |
| ≤ 100 | 100 to 500 | ≤ 100 | – | COC(C)(C)CCNC(=O)Nc1cc(-c2cc(OCCO)nc(-c3ccnc4[nH]ncc34)c2)c(C)cc1F [Example 91] |
| ≤ 100 | 1000 to 10000 | 100 to 500 | – | Cc1cc(F)c(NC(=O)N2CCC(C)(C#N)CC2)cc1-c1cc(OCCO)nc(-c2ccnc3[nH]ncc23)c1 [Example 92] |
| – | 500 to 1000 | – | 1000 to 10000 | CNC(=O)c1cc(-c2cncc(-c3cc(NC(=O)N4CC[C@H](C(F)(F)F)C4)ccc3C)c2)ncn1 [Example 220] |
| – | 100 to 500 | – | – | COC(=O)Nc1cc(-c2cncc(-c3cc(NC(=O)N4CC[C@H](C(F)(F)F)C4)ccc3C)c2)ncn1 [Example 224] |
| – | 100 to 500 | – | 100 to 500 | CNC(=O)c1cc(-c2cc(-c3cc(NC(=O)N4CC[C@H](C(C)C)C4)ccc3C)ccn2)ccn1 [Example 225] |
| – | 500 to 1000 | – | 500 to 1000 | CNC(=O)c1cc(-c2cncc(-c3cc(NC(=O)N4CC[C@H](C(C)C)C4)ccc3C)c2)ncn1 [Example 226] |
| – | – | – | 1000 to 10000 | Cc1ccc(NC(=O)N2CC[C@H](C)C2)cc1-c1cncc(-c2cc(NC(=O)C3CC3)ncn2)c1 [Example 227] |
| – | – | – | 1000 to 10000 | CNC(=O)c1cc(-c2cncc(-c3cc(NC(=O)N4CC[C@H](C(F)(F)F)C4)ccc3C)c2)ccn1 [Example 228] |
| – | – | – | 100 to 500 | CNC(=O)c1cc(-c2cncc(-c3cc(NC(=O)N4CC[C@H](C(C)C)C4)ccc3C)c2)ccn1 [Example 229] |
